# Results: the supplement of paper PMC10627819
# Legend:
# S. aureus Newman = experiment: fitness (endpoint OD595 vs no drug) (fraction); higher = more growth
# How it was run: (§1)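 Fitness is computed from the optical density at which cultures reach stationary phase, divided by the robust mean of no-drug control wells. Any value above 1 is set to 1. Cultures started at OD595 0.01 in 384-well plates with TSB, LB Lennox or CY at 37 °C, and OD595 was read every 30 min for 14 h against a first-reading background.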
# S. pneumoniae D39V = experiment: as above
# How it was run: as §1
# [1] = first compound 0.039 µg/mL, partner 0.0625 µg/mL
# [2] = first compound 0.078 µg/mL, partner 0.0625 µg/mL
# [3] = first compound 0.078 µg/mL, partner 0.125 µg/mL
# [4] = first compound 0.078 µg/mL, partner 0.25 µg/mL
# 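Also: OD595 on entry to stationary phase over no-drug wells; at most 1.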
smiles,measurement,setting,value
CC1(C)S[C@@H]2[C@H](NC(=O)Cc3ccccc3)C(=O)N2[C@H]1C(=O)O [Penicillin G] + COc1ccc(C[C@H](N)C(=O)N[C@H]2[C@@H](O)[C@H](n3cnc4c(N(C)C)ncnc43)O[C@@H]2CO)cc1 [Puromycin],fitness,"S. aureus Newman; first compound 0.0195 µg/mL, partner 0.39 µg/mL",0.879
same,fitness,"S. aureus Newman; first compound 0.0195 µg/mL, partner 0.78 µg/mL",0.914
same,fitness,"S. aureus Newman; first compound 0.0195 µg/mL, partner 1.56 µg/mL",0.929
same,fitness,"S. aureus Newman; first compound 0.039 µg/mL, partner 0.39 µg/mL",0.933
same,fitness,"S. aureus Newman; first compound 0.039 µg/mL, partner 0.78 µg/mL",0.935
same,fitness,"S. aureus Newman; first compound 0.039 µg/mL, partner 1.56 µg/mL",0.941
same,fitness,"S. aureus Newman; first compound 0.078 µg/mL, partner 0.39 µg/mL",0.909
same,fitness,"S. aureus Newman; first compound 0.078 µg/mL, partner 0.78 µg/mL",0.868
same,fitness,"S. aureus Newman; first compound 0.078 µg/mL, partner 1.56 µg/mL",0.961
CC1(C)S[C@@H]2[C@H](NC(=O)Cc3ccccc3)C(=O)N2[C@H]1C(=O)O [Penicillin G] + C[n+]1ccc(-c2cc[n+](C)cc2)cc1 [Paraquat],fitness,"S. aureus Newman; first compound 0.0195 µg/mL, partner 1.25 µg/mL",0.827
same,fitness,"S. aureus Newman; first compound 0.0195 µg/mL, partner 2.5 µg/mL",0.863
same,fitness,"S. aureus Newman; first compound 0.0195 µg/mL, partner 5 µg/mL",0.875
same,fitness,"S. aureus Newman; first compound 0.039 µg/mL, partner 1.25 µg/mL",0.832
same,fitness,"S. aureus Newman; first compound 0.039 µg/mL, partner 2.5 µg/mL",0.871
same,fitness,"S. aureus Newman; first compound 0.039 µg/mL, partner 5 µg/mL",0.807
same,fitness,"S. aureus Newman; first compound 0.078 µg/mL, partner 1.25 µg/mL",0.876
same,fitness,"S. aureus Newman; first compound 0.078 µg/mL, partner 2.5 µg/mL",0.827
same,fitness,"S. aureus Newman; first compound 0.078 µg/mL, partner 5 µg/mL",0.819
CC1(C)S[C@@H]2[C@H](NC(=O)Cc3ccccc3)C(=O)N2[C@H]1C(=O)O [Penicillin G] + Cc1cc(NS(=O)(=O)c2ccc(N)cc2)no1 [Sulfamethoxazol],fitness,"S. aureus Newman; first compound 0.0195 µg/mL, partner 1 µg/mL",0.929
same,fitness,"S. aureus Newman; first compound 0.0195 µg/mL, partner 2 µg/mL",0.957
same,fitness,"S. aureus Newman; first compound 0.0195 µg/mL, partner 8 µg/mL, one replicate",0.859
same,fitness,"S. aureus Newman; first compound 0.039 µg/mL, partner 1 µg/mL",0.912
same,fitness,"S. aureus Newman; first compound 0.039 µg/mL, partner 8 µg/mL, one replicate",0.87
same,fitness,"S. aureus Newman; first compound 0.078 µg/mL, partner 1 µg/mL",0.888
same,fitness,"S. aureus Newman; first compound 0.078 µg/mL, partner 2 µg/mL",0.879
same,fitness,"S. aureus Newman; first compound 0.078 µg/mL, partner 8 µg/mL, one replicate",0.882
CC1(C)S[C@@H]2[C@H](NC(=O)Cc3ccccc3)C(=O)N2[C@H]1C(=O)O [Penicillin G] + Cn1nnc(-c2ccc(-c3ccc(N4C[C@H](CO)OC4=O)cc3F)cn2)n1 [Tedizolid],fitness,"S. aureus Newman; first compound 0.0195 µg/mL, partner 0.0625 µg/mL",0.864
same,fitness,"S. aureus Newman; first compound 0.0195 µg/mL, partner 0.125 µg/mL",0.803
same,fitness,"S. aureus Newman; first compound 0.0195 µg/mL, partner 0.25 µg/mL",0.405
same,fitness,S. aureus Newman; [1],0.861
same,fitness,"S. aureus Newman; first compound 0.039 µg/mL, partner 0.25 µg/mL",0.339
same,fitness,S. aureus Newman; [2],0.849
same,fitness,S. aureus Newman; [3],0.719
same,fitness,S. aureus Newman; [4],0.305
CN(C)c1cc(NC(=O)CNC(C)(C)C)c(O)c2c1C[C@H]1C[C@H]3[C@H](N(C)C)C(O)=C(C(N)=O)C(=O)[C@@]3(O)C(O)=C1C2=O [Tigecycline] + Cn1nnc(-c2ccc(-c3ccc(N4C[C@H](CO)OC4=O)cc3F)cn2)n1 [Tedizolid],fitness,S. aureus Newman; [1],0.972
same,fitness,S. aureus Newman; [2],0.941
same,fitness,S. aureus Newman; [3],0.844
same,fitness,S. aureus Newman; [4],0.469
same,fitness,"S. aureus Newman; first compound 0.156 µg/mL, partner 0.0625 µg/mL",0.965
same,fitness,"S. aureus Newman; first compound 0.156 µg/mL, partner 0.25 µg/mL",0.466
same,fitness,"S. pneumoniae D39V; first compound 0.65 µg/mL, partner 0.03125 µg/mL",0.923
same,fitness,"S. pneumoniae D39V; first compound 0.65 µg/mL, partner 0.0625 µg/mL",0.934
same,fitness,"S. pneumoniae D39V; first compound 0.65 µg/mL, partner 0.125 µg/mL",0.81
same,fitness,"S. pneumoniae D39V; first compound 0.65 µg/mL, partner 0.25 µg/mL",0.653
same,fitness,"S. pneumoniae D39V; first compound 0.65 µg/mL, partner 0.5 µg/mL",0.379
same,fitness,"S. pneumoniae D39V; first compound 1.3 µg/mL, partner 0.03125 µg/mL",0.911
same,fitness,"S. pneumoniae D39V; first compound 1.3 µg/mL, partner 0.0625 µg/mL",0.903
same,fitness,"S. pneumoniae D39V; first compound 1.3 µg/mL, partner 0.125 µg/mL",0.791
same,fitness,"S. pneumoniae D39V; first compound 1.3 µg/mL, partner 0.25 µg/mL",0.658
same,fitness,"S. pneumoniae D39V; first compound 1.3 µg/mL, partner 0.5 µg/mL",0.353
same,fitness,"S. pneumoniae D39V; first compound 2.6 µg/mL, partner 0.03125 µg/mL",0.884
same,fitness,"S. pneumoniae D39V; first compound 2.6 µg/mL, partner 0.0625 µg/mL",0.943
same,fitness,"S. pneumoniae D39V; first compound 2.6 µg/mL, partner 0.125 µg/mL",0.827
same,fitness,"S. pneumoniae D39V; first compound 2.6 µg/mL, partner 0.25 µg/mL",0.669
same,fitness,"S. pneumoniae D39V; first compound 2.6 µg/mL, partner 0.5 µg/mL",0.375
